Measurements as given in patent US20260374756A1, “HETEROCYCLIC COMPOUNDS AS INHIBITORS OF MONOACYLGLYCEROL LIPASE (MAGL)” (Hoffmann-La Roche Inc., priority 2022, published 2026).
pIC50: −log10 of the molar value.

biological target: T1, hMAGL (Homo sapiens, UniProt Q99685); test: 2-AG assay: MAGL inhibition, hydrolysis of 2-arachidonoylglycerol to arachidonic acid followed by mass spectrometry; format: biochemical
T1 sequence (Q99685 1-303): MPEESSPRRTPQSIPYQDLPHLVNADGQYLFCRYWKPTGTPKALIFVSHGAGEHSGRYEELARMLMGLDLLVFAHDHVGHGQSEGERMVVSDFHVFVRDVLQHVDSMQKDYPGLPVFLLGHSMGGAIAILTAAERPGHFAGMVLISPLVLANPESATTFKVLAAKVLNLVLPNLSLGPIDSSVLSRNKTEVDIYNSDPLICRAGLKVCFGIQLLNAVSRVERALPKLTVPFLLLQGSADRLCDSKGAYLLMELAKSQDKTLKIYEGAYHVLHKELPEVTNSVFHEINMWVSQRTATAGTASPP
Method: Compounds of formula (I) were profiled for MAGL inhibitory activity by determining the enzymatic activity by following the hydrolysis of the natural substrate 2-arachidonoylglycerol (2-AG) resulting in arachidonic acid, which can be followed by mass spectrometry. This assay is hereinafter abbreviated “2-AG assay”. The 2-AG assay was carried out in 384 well polypropylene assay plates. […] Compound dilutions were added to MAGL protein in assay buffer (50 mM TRIS, 1 mM EDTA, 0.01% (v/v) Tween-20, 2.5% (v/v) DMSO). After shaking, the plate was incubated for 15 min at RT. To start the reaction, 2-arachidonoylglycerol in assay buffer was added. The final concentrations in the assay was […] for MAGL protein and 8 μM 2-arachidonoylglyerol. After shaking and 30 min incubation at RT, the reaction was quenched by the addition of two assay volumes of acetonitrile containing 4 μM of d8-arachidonic acid. The amount of arachidonic acid formed was traced by an online SPE system (Agilent Rapidfire) coupled to a triple quadrupole mass spectrometer. A C18 SPE cartridge (Agilent G9205A) was used in an acetonitrile/water liquid setup. […] The activity of the compounds was calculated based on the ratio of intensities [arachidonic acid/d8-arachidonic acid].

Structure (SMILES) | pIC50
O=C(N1CC2(CC(n3cnc(C(F)(F)F)n3)C2)C1)N1CC2(CN(Cc3coc(C(F)(F)F)n3)C2)C1 [Example 213, [6-[[2-(trifluoromethyl)oxazol-4-yl]methyl]-2,6-diazaspiro[3.3]heptan-2-yl]-[6-[3-(trifluoromethyl)-1,2,4-triazol-1-yl]-2-azaspiro[3.3]heptan-2-yl]methanone] | 6.77
O=C(N1CC2(CCN(Cc3cc(C(F)(F)F)on3)CC2)C1)N1CC2(CC(n3cnc(C(F)(F)F)n3)C2)C1 [Example 79, [7-[[5-(trifluoromethyl)isoxazol-3-yl]methyl]-2,7-diazaspiro[3.5]nonan-2-yl]-[6-[3-(trifluoromethyl)-1,2,4-triazol-1-yl]-2-azaspiro[3.3]heptan-2-yl]methanone] | 7.15
O=C(N1CC2(CC(Cc3nc(C(F)(F)F)c[nH]3)C2)C1)N1CC2(CC(n3cnc(C(F)F)n3)C2)C1 [Example 326, [6-[3-(difluoromethyl)-1,2,4-triazol-1-yl]-2-azaspiro[3.3]heptan-2-yl]-[6-[[4-(trifluoromethyl)-1H-imidazol-2-yl]methyl]-2-azaspiro[3.3]heptan-2-yl]methanone] | 7.65
O=C(N1CC2(CC(n3cnc(C(F)(F)F)n3)C2)C1)N1CC2(CN(Cc3cn[nH]c3C(F)(F)F)C2)C1 [Example 49, [6-[[5-(trifluoromethyl)-1H-pyrazol-4-yl]methyl]-2,6-diazaspiro[3.3]heptan-2-yl]-[6-[3-(trifluoromethyl)-1,2,4-triazol-1-yl]-2-azaspiro[3.3]heptan-2-yl]methanone] | 7.32
O=C(N1CC2(CC(n3cnc(C(F)(F)F)n3)C2)C1)N1CC2(CN(Cc3cnn(C(F)(F)F)c3)C2)C1 [Example 181, [6-[[1-(trifluoromethyl)pyrazol-4-yl]methyl]-2,6-diazaspiro[3.3]heptan-2-yl]-[6-[3-(trifluoromethyl)-1,2,4-triazol-1-yl]-2-azaspiro[3.3]heptan-2-yl]methanone] | 6.88
CS(=O)(=O)c1cnn(CC2CC3(C2)CN(C(=O)N2CC4(CC(n5cnc(C(F)(F)F)n5)C4)C2)C3)c1 [Example 327, [6-[(4-mesylpyrazol-1-yl)methyl]-2-azaspiro[3.3]heptan-2-yl]-[6-[3-(trifluoromethyl)-1,2,4-triazol-1-yl]-2-azaspiro[3.3]heptan-2-yl]methanone] | 7.65
O=C(N1CC2(CC(c3cc(C4CC4)n[nH]3)C2)C1)N1CC2(CN(Cc3ccnn3C(F)(F)F)C2)C1 [Example 224, [6-(3-cyclopropyl-1H-pyrazol-5-yl)-2-azaspiro[3.3]heptan-2-yl]-[6-[[2-(trifluoromethyl)pyrazol-3-yl]methyl]-2,6-diazaspiro[3.3]heptan-2-yl]methanone] | 7.70
CCc1nsc(CN2CC3(C2)CN(C(=O)N2CC4(CC(n5cnc(C6CC6)n5)C4)C2)C3)n1 [Example 287, [6-(3-cyclopropyl-1,2,4-triazol-1-yl)-2-azaspiro[3.3]heptan-2-yl]-[6-[(3-ethyl-1,2,4-thiadiazol-5-yl)methyl]-2,6-diazaspiro[3.3]heptan-2-yl]methanone] | 6.87
CC(C)(C)c1ncc(CN2CC3(C2)CN(C(=O)N2CC4(CC(n5cnc(C(F)(F)F)n5)C4)C2)C3)s1 [Example 56, [6-[(2-tert-butylthiazol-5-yl)methyl]-2,6-diazaspiro[3.3]heptan-2-yl]-[6-[3-(trifluoromethyl)-1,2,4-triazol-1-yl]-2-azaspiro[3.3]heptan-2-yl]methanone] | 7.97
Cn1ncc(CN2CC3(C2)CN(C(=O)N2CC4(CC(n5cnc(C(F)(F)F)n5)C4)C2)C3)c1S(N)(=O)=O [Example 250, 2-methyl-4-[[2-[6-[3-(trifluoromethyl)-1,2,4-triazol-1-yl]-2-azaspiro[3.3]heptane-2-carbonyl]-2,6-diazaspiro[3.3]heptan-6-yl]methyl]pyrazole-3-sulfonamide] | 6.01
O=C(N1CC2(CCN(Cc3ncc(C(F)F)s3)CC2)C1)N1CC2(CC(n3cnc(C4(O)CC4)n3)C2)C1 [Example 33, [7-[[5-(difluoromethyl)thiazol-2-yl]methyl]-2,7-diazaspiro[3.5]nonan-2-yl]-[6-[3-(1-hydroxycyclopropyl)-1,2,4-triazol-1-yl]-2-azaspiro[3.3]heptan-2-yl]methanone] | 7.12
O=C(N1CC2(CC(Cc3nc(CC(F)(F)F)n[nH]3)C2)C1)N1CC2(CC(n3cnc(C4(O)CC4)n3)C2)C1 [Example 205, [6-[3-(1-hydroxycyclopropyl)-1,2,4-triazol-1-yl]-2-azaspiro[3.3]heptan-2-yl]-[6-[[3-(2,2,2-trifluoroethyl)-1H-1,2,4-triazol-5-yl]methyl]-2-azaspiro[3.3]heptan-2-yl]methanone] | 7.14

The next compounds have a higher pIC50 than those just listed; values first:

pIC50 | Structure (SMILES)
8.28 | Cn1nc(CN2CC3(C2)CN(C(=O)N2CC4(CC(n5cnc(C6CC6)n5)C4)C2)C3)cc1C(F)(F)F [Example 162, [6-(3-cyclopropyl-1,2,4-triazol-1-yl)-2-azaspiro[3.3]heptan-2-yl]-[6-[[1-methyl-5-(trifluoromethyl)pyrazol-3-yl]methyl]-2,6-diazaspiro[3.3]heptan-2-yl]methanone]
8.29 | CC(C)(C)c1ncc(CN2CC3(C2)CN(C(=O)N2CC4(CC(n5cnc(C6CC6)n5)C4)C2)C3)s1 [Example 57, [6-[(2-tert-butylthiazol-5-yl)methyl]-2,6-diazaspiro[3.3]heptan-2-yl]-[6-(3-cyclopropyl-1,2,4-triazol-1-yl)-2-azaspiro[3.3]heptan-2-yl]methanone]
8.43 | CC(C)(C)c1nnc(CN2CC3(C2)CN(C(=O)N2CC4(CC(n5cnc(C(F)(F)F)n5)C4)C2)C3)s1 [Example 208, [6-[(5-tert-butyl-1,3,4-thiadiazol-2-yl)methyl]-2,6-diazaspiro[3.3]heptan-2-yl]-[6-[3-(trifluoromethyl)-1,2,4-triazol-1-yl]-2-azaspiro[3.3]heptan-2-yl]methanone]
8.54 | Cn1cc(C(F)(F)F)c(CC2CC3(C2)CN(C(=O)N2CC4(CC(n5cnc(C6(O)CC6)n5)C4)C2)C3)n1 [Example 289, [6-[3-(1-hydroxycyclopropyl)-1,2,4-triazol-1-yl]-2-azaspiro[3.3]heptan-2-yl]-[6-[[1-methyl-4-(trifluoromethyl)pyrazol-3-yl]methyl]-2-azaspiro[3.3]heptan-2-yl]methanone]
8.74 | O=C(N1CC2(CC(Cc3cc(C(F)(F)F)n[nH]3)C2)C1)N1CC2(CC(n3cnc(C4(O)CC4)n3)C2)C1 [Example 299, [6-[3-(1-hydroxycyclopropyl)-1,2,4-triazol-1-yl]-2-azaspiro[3.3]heptan-2-yl]-[6-[[3-(trifluoromethyl)-1H-pyrazol-5-yl]methyl]-2-azaspiro[3.3]heptan-2-yl]methanone]
8.79 | O=C(N1CC2(CC(Cn3cc(C4(C(F)(F)F)CC4)cn3)C2)C1)N1CC2(CC(n3cnc(C4(O)CC4)n3)C2)C1 [Example 60, [6-[3-(1-hydroxycyclopropyl)-1,2,4-triazol-1-yl]-2-azaspiro[3.3]heptan-2-yl]-[6-[[4-[1-(trifluoromethyl)cyclopropyl]pyrazol-1-yl]methyl]-2-azaspiro[3.3]heptan-2-yl]methanone]
8.96 | O=C(N1CC2(CC(Cc3nc(C4CC4)n[nH]3)C2)C1)N1CC2(CC(c3cc(C4CC4)n[nH]3)C2)C1 [Example 301, [6-(3-cyclopropyl-1H-pyrazol-5-yl)-2-azaspiro[3.3]heptan-2-yl]-[6-[(3-cyclopropyl-1H-1,2,4-triazol-5-yl)methyl]-2-azaspiro[3.3]heptan-2-yl]methanone]
8.97 | Cc1cc(C2CC2)n(CC2CC3(C2)CN(C(=O)N2CC4(CC(n5cnc(C(F)(F)F)n5)C4)C2)C3)n1 [Example 131, [6-[(5-cyclopropyl-3-methyl-pyrazol-1-yl)methyl]-2-azaspiro[3.3]heptan-2-yl]-[6-[3-(trifluoromethyl)-1,2,4-triazol-1-yl]-2-azaspiro[3.3]heptan-2-yl]methanone]
9.22 | O=C(N1CC2(CC(Cc3cc(C4(C(F)(F)F)CC4)[nH]n3)C2)C1)N1CC2(CC(n3cnc(C(F)F)n3)C2)C1 [Example 352, [6-[3-(difluoromethyl)-1,2,4-triazol-1-yl]-2-azaspiro[3.3]heptan-2-yl]-[6-[[5-[1-(trifluoromethyl)cyclopropyl]-1H-pyrazol-3-yl]methyl]-2-azaspiro[3.3]heptan-2-yl]methanone]
9.40 | O=C(N1CC2(CC(Cn3ccnc3C(F)(F)F)C2)C1)N1CC2(CC(c3cc(C4CC4)n[nH]3)C2)C1 [Example 145, [6-(3-cyclopropyl-1H-pyrazol-5-yl)-2-azaspiro[3.3]heptan-2-yl]-[6-[[2-(trifluoromethyl)imidazol-1-yl]methyl]-2-azaspiro[3.3]heptan-2-yl]methanone]
9.52 | O=C(N1CC2(CC(Cc3cnn4cc(C(F)(F)F)cnc34)C2)C1)N1CC2(CC(n3cnc(C4CC4)n3)C2)C1 [Example 360, [6-(3-cyclopropyl-1,2,4-triazol-1-yl)-2-azaspiro[3.3]heptan-2-yl]-[6-[[6-(trifluoromethyl)pyrazolo[1,5-a]pyrimidin-3-yl]methyl]-2-azaspiro[3.3]heptan-2-yl]methanone]
